# Structures can show the parent of a compound that is named as a salt. Where two headings read alike, the source gives them in different places.
# Key:
# [1] = test system: Bacteroides uniformis ATCC 8492; experiment: Minimal inhibitory concentration against anaerobic bacteria; settings: ATCC8492, 24 h
# [2] = test system: Desulfovibrio desulfuricans API-BREWER; experiment: as above; settings: 24 h
# [3] = test system: Desulfovibrio desulfuricans API-SW2; experiment: as above; settings: for Minimal Inhibitory Concentration: 24 hours at 37° C.
# [4] = test system: Desulfovibrio desulfuricans API-CORE; experiment: as above; settings: 24 h
# [5] = test system: Bacteroides fragilis ATCC 23745; experiment: as above; settings: ATCC23745, 24 h
# [6] = test system: C. perfringens (ATCC 13124); experiment: microbe, parasite or virus in culture; type: cell-based; settings: Clostridium perfringens, ATCC13124, 24 h
# [7] = test system: Clostridium sporogenes ATCC 19404; experiment: Minimal inhibitory concentration against anaerobic bacteria; type: cell-based; settings: ATCC19404, 24 h
# in vivo = settings: male mice, 7 day
# T. vaginalis ATCC 30001 = experiment: Antianaerobic activity, MIC by standard broth dilution method (Table II); type: cell-based; settings: Trichomonas vaginalis, ATCC30001, 24 h, read-out: Minimal Inhibitory Concentration (MIC)
# Experimental: (§1) The activity of the compounds identified in the Table II below was tested for antianaerobic activity against one strain of Bacteroides fragilis, one strain of Bacteroides uniformis, one strain of Clostridium sporogenes and one strain of Trichomonas vaginalis as the test organism. The methods used involved determining the minimum inhibitory concentration by the standard broth dilution method. […] For convenience the compounds are referred to by an internal reference number (an HC number) and this is correlated with the number of the Example wherein its production is described.
# B. uniformis ATCC 8492 = experiment: as above; type: cell-based; settings: Bacteroides uniformis, ATCC8492, 24 h, read-out: Minimal Inhibitory Concentration (MIC)
# Experimental: as §1
# B. fragilis ATCC 23745 = experiment: as above; type: cell-based; settings: Bacteroides fragilis, ATCC23745, 24 h, read-out: Minimal Inhibitory Concentration (MIC)
# Experimental: as §1
# C. sporogenes ATCC 19404 = experiment: as above; type: cell-based; settings: Clostridium sporogenes, ATCC19404, 24 h, read-out: Minimal Inhibitory Concentration (MIC)
# Experimental: The activity of the compounds identified in the Table II below was tested for antianaerobic activity against one strain of Bacteroides fragilis, one strain of Bacteroides uniformis, one strain of Clostridium sporogenes and one strain of Trichomonas vaginalis as the test organism. The methods used involved determining the minimum inhibitory concentration by the standard broth dilution method. The values for metronidazole (2-methyl-5-nitro-1H-imidazole-1-ethanol) are given above for reference purposes. For convenience the compounds are referred to by an internal reference number (an HC number) and this is correlated with the number of the Example wherein its production is described.
# candida albicans = experiment: Oral treatment: recovery of viable candida albicans from the kidneys of infected mice; type: in vivo
# Text: Effect of oral treatment with HC274, HC316, HC390, HC415 and Ketoconazole on the recovery of viable candida albicans from the kidneys of infected mice.
# [8] = read-out: Minimal Inhibitory Concentration, Test 1, 24 hours at 37° C.
# [9] = read-out: Minimal Inhibitory Concentration, Test 2, 24 hours at 37° C.
# [10] = read-out: Minimal Inhibitory Concentration, Test 3, 24 hours at 37° C.
smiles,measurement,setting,value
"Cc1ncc([N+](=O)[O-])n1CCO [Metronidazole, 2-methyl-5-nitro-1H-imidazole-1-ethanol, reference compound]",MIC,[1]; [8],0.5 µg/mL
same,MIC,[1]; [9],0.25 µg/mL
same,MIC,[1]; [10],0.25 µg/mL
same,MIC,[2]; [8],0.5 µg/mL
same,MIC,[2]; [9],0.5 µg/mL
same,MIC,[2]; [10],0.5 µg/mL
same,MIC,"[3]; Desulfovibrio desulfuricans, APISW2, 24 h, read-out: Minimal Inhibitory Concentration",0.25 µg/mL
same,Minimal Inhibitory Concentration,[3]; Test 2,0.25 mg/L
same,Minimal Inhibitory Concentration,[3]; Test 3,0.25 mg/L
same,MIC,[4]; [8],0.5 µg/mL
same,MIC,[4]; [9],0.25 µg/mL
same,MIC,[4]; [10],0.25 µg/mL
same,MIC,[5]; [8],0.75 µg/mL
same,MIC,[5]; [9],0.75 µg/mL
same,MIC,[5]; [10],0.5 µg/mL
same,MIC,[6],0.3 µg/mL
same,MIC,"[7]; Test 1, 24 hours at 37° C.",0.5 µg/mL
same,MIC,"[7]; Test 2, 24 hours at 37° C.",0.25 µg/mL
same,MIC,"[7]; Test 3, 24 hours at 37° C.",0.75 µg/mL
"Clc1ccc(/C(Cn2ccnc2)=N/Nc2c(Cl)cccc2Cl)s1 [HC390, (E)-1-(5-chlorothienyl-2-yl)-2-(1H-imidazol-1-yl)ethanone, 2,6-dichlorophenylhydrazone, hydrochloride]",LD50 at 168 h,"in vivo; mouse, in vivo, ip, read-out: LD50",610 mg/kg
same,LD12.5,in vivo; p.o.,> 1500 mg/kg
same,MIC,T. vaginalis ATCC 30001; Test 1,> 50 µg/mL
same,MIC,T. vaginalis ATCC 30001; Test 2,> 50 µg/mL
same,MIC,T. vaginalis ATCC 30001; Test 3,> 50 µg/mL
same,MIC,B. uniformis ATCC 8492; Test 1,2.5 µg/mL
same,MIC,B. uniformis ATCC 8492; Test 2,2.5 µg/mL
same,MIC,B. uniformis ATCC 8492; Test 3,2.5 µg/mL
same,MIC,B. fragilis ATCC 23745; Test 1,5 µg/mL
same,MIC,B. fragilis ATCC 23745; Test 2,2.5 µg/mL
same,MIC,B. fragilis ATCC 23745; Test 3,2.5 µg/mL
same,MIC,[6],3.1 µg/mL
same,MIC,C. sporogenes ATCC 19404; Test 1,2.5 µg/mL
same,MIC,C. sporogenes ATCC 19404; Test 2,5 µg/mL
same,MIC,C. sporogenes ATCC 19404; Test 3,7.5 µg/mL
same,Recovery of C.albicans (as percentage of control),candida albicans; 5 mg/kg,57.3 percentage of control
same,Recovery of C.albicans (as percentage of control),candida albicans; 20 mg/kg,41.1 percentage of control
"Cl.Clc1ccc(NN=C(Cn2ccnc2)c2ccccc2Cl)c(Cl)c1 [HC316, 1-(2-Chlorophenyl)-2-(1H-imidazol-1-yl)ethanone, 2,4-dichlorophenylhydrazone, hydrochloride]",MIC,T. vaginalis ATCC 30001; Test 1,50 µg/mL
same,MIC,T. vaginalis ATCC 30001; Test 2,50 µg/mL
same,MIC,T. vaginalis ATCC 30001; Test 3,50 µg/mL
same,MIC,B. uniformis ATCC 8492; Test 1,2.5 µg/mL
same,MIC,B. uniformis ATCC 8492; Test 2,2.5 µg/mL
same,MIC,B. uniformis ATCC 8492; Test 3,2.5 µg/mL
same,MIC,B. fragilis ATCC 23745; Test 1,2.5 µg/mL
same,MIC,B. fragilis ATCC 23745; Test 2,2.5 µg/mL
same,MIC,B. fragilis ATCC 23745; Test 3,2.5 µg/mL
same,MIC,[6],0.8 µg/mL
same,MIC,C. sporogenes ATCC 19404; Test 1,1 µg/mL
same,MIC,C. sporogenes ATCC 19404; Test 2,2.5 µg/mL
same,MIC,C. sporogenes ATCC 19404; Test 3,2.5 µg/mL
same,Recovery of C.albicans (as percentage of control),candida albicans; 5 mg/kg,56.2 percentage of control
same,Recovery of C.albicans (as percentage of control),candida albicans; 20 mg/kg,46.5 percentage of control

# Source: patent US4351948A, “Imidazole hydrazone derivatives” (priority 1980, dated 1982)
